Test results published in ChEMBL document CHEMBL5727723, “(S)-5-ethynyl-anabasine, derivatives thereof, and related compositions and methods of making and using” (2020).

Experiment: functional assay: Nematode eggs are isolated from fresh feces by centrifugation and flotation. The eggs are washed and inspected to confirm embryonation has not started. Each sample is tested at six concentrations of a test compound (e.g., 0.02, 0.05, 0.1, 0.25, 0.5 and 1.0 μg/ml) and a negative control (no compound). After incubation for 48 h, the assay is ended, and all eggs and larvae present in each well are counted. The Hill equation with a variable slope is used to fit the dose-response relations using GraphPad Prism. The EC50-values and 95% confidence intervals are calculated.
CN1CCCCC1c1cccnc1 (centres undefined) gave an EC50 of under 100 µM.
Molecule CN1CCC[C@H]1c1ccc[n+](C)c1 has an EC50 of under 100 µM.
CN1CCCC1c1ccc(N)nc1 (centres undefined) gave an EC50 of 12.2 µM.
CN1C(=O)CC[C@H]1c1cccnc1 [COTININE] showed an EC50 of under 100 µM.
